Reference: patent publication US20230047825A1, “ANTIMICROBIAL PEPTIDES” (priority 2019, published 2023)
Converted amounts (≈) assume the structure as drawn. Where two headings read alike, the source gives them in different places. Where a SMILES comes first, the peptide text is derived from it.

Legend:
P. aeruginosa RP73 = experiment: Antibacterial activity assay (broth microdilution MIC); assay type: cell-based, Pseudomonas aeruginosa; settings: in µg/mL
Experimental: (§1) Antibacterial activity assay.
Synergy experiments were performed following a checkerboard protocol.

HeLa = experiment: Cytotoxicity assay (XTT); assay type: cell-based, human; parameters: Toxicity HeLa: unit not given beside the values
Experimental: (§2) Cytotoxicity assay. HeLa and HEK293 cell lines were purchased from ECACC and cultured in Eagle's Minimum Essential Media (EMEM) containing glutamine, supplemented with 10% FBS and 1× non-essential amino acids (NEAA) at 37° C., 10% CO2. Cytotoxicity was measured by incubating starter cultures of cells for 24 hours in a 96 well plate, gently removing the supernatant and replacing it with dilutions of peptides and controls, incubating for a further 24 hours and then staining of the cells with the second generation tetrazolium dye, XTT. […]

[1] = tested on: Acinetobacter baumannii ATCC 17978; assay type: cell-based; settings: in µg/mL; for MIC, Stability in serum (MH): Ab17978
[2] = tested on: Pseudomonas aeruginosa PA01; experiment: Antibacterial activity assay (broth microdilution MIC); assay type: cell-based
Calu-3 = experiment: Cytotoxicity assay; assay type: cell-based; settings: value printed in parentheses
[3] = tested on: Pseudomonas aeruginosa NCTC 13437; experiment: Antibacterial activity assay (broth microdilution MIC); assay type: cell-based; settings: PA13437, in µg/mL
[4] = tested on: Klebsiella pneumoniae NCTC 13368; assay type: cell-based; settings: KP13368, in µg/mL
Klebsiella pneumoniae M6 = assay type: cell-based
VRE12201 = experiment: Antibacterial activity assay (broth microdilution MIC); assay type: cell-based, Enterococcus faecalis; settings: medium and unit inferred
Text: as §1
The bacterial strains used are as in the above examples. A table of strains is provided below to aid understanding.

HEK293 = experiment: Cytotoxicity assay (XTT); assay type: cell-based, human
Experimental: as §2

[5] = tested on: VR Enterococcus faecium NCTC 12204; experiment: Antibacterial activity assay (broth microdilution MIC); assay type: cell-based; settings: VRE12204, in µg/mL
[6] = tested on: MS Staphylococcus aureus ATCC 9144; assay type: cell-based; settings: MSSA9144
[7] = tested on: VS Enterococcus faecalis NCTC 775; experiment: Antibacterial activity assay (broth microdilution MIC); assay type: cell-based
[8] = tested on: EMR Staphylococcus aureus-15 (EMRSA-15); assay type: cell-based
A549 = experiment: Cytotoxicity assay; assay type: cell-based; settings: value printed in parentheses
[9] = tested on: Escherichia coli NCTC 12923; assay type: cell-based; settings: EC12923
[10] = tested on: EMR Staphylococcus aureus-16 (EMRSA-16); assay type: cell-based; settings: EMRSA16
human red blood cells = experiment: Haemolysis assay; settings: red cells of human, 1 h
Experimental: Haemolysis assay. Haemolysis was tested by incubating titrations of AMPs in PBS with freshly collected human red blood cells for 1 hour at 37 C. Control wells were treated with 0.1% Triton-X-100 to ensure complete lysis, or PBS-only to represent no lysis. Samples were spun down to remove non-lysed cells and the OD^550 of the supernatant was measured using a Clariostar plate reader. The percentage of haemolysis was calculated as % haemolysis=(AP−AB)/(AC−AB)×100, where AP is the absorbance value for a known peptide concentration, AC is the absorbance of the 0.1% Triton-X-100 control, AB is the absorbance of the PBS control. Data presented are averages and standard error from three biological replicate experiments.
Methods: The natural AMP (termed AMP1) was modified to produce synthetic variants, AMPs 1a, 2a, 2b, 3a and 3b. Minimum inhibitory concentrations (MICs) were determined using the microbroth dilution assay with Mueller Hinton broth (MHB) or RPMI (with 5% FBS) and stability in serum was tested by conducting MICs in MHB containing 10% FBS. Synergy experiments were performed following a checkerboard protocol. Cytotoxicity was tested against HEK293 and HeLa immortalised human cell-lines using the XTT viability stain and by quantifying haemolysis of human red blood cells. Patch clamp analysis was performed using the Port-a-Patch® automated patch-clamp system on DPhPE/DPhPG (model for a Gram-negative plasma membrane) or DPhPG (Gram-positive) model membranes challenged with peptide. The murine lung infection model was performed using the agar bead model with Staphylococcus aureus strain NCTC 13616 (EMRSA-15).

[11] = tested on: Acinetobacter baumannii AYE; assay type: cell-based; settings: AYE
C. albicans = experiment: MIC on initial panels, fungi; assay type: cell-based; settings: unit inferred
[12] = medium and unit not given, in µg/mL
[13] = untitled table, medium/unit inferred, values match RPMI of Table 2
[14] = untitled table, medium/unit not given, values match RPMI of Table 2
[15] = untitled table, medium/unit not given, values match RPMI of Table 2, in µg/mL

CC(C)C[C@@H](NC(=O)[C@@H](Cc1ccc(O)cc1)NC(=O)[C@@H](Cc1c[nH]cn1)NC(=O)[C@H](NC(=O)[C@@H](CC(C)C)NC(=O)[C@@H](C)NC(=O)[C@@H](C)NC(=O)[C@@H](CCCCN)NC(=O)CNC(=O)[C@@H](C)NC(=O)[C@@H](Cc1c[nH]cn1)NC(=O)[C@@H](CCCCN)NC(=O)CNC(=O)[C@@H](C)NC(=O)[C@@H](Cc1c[nH]cn1)NC(=O)[C@@H](C)NC(=O)[C@@H](C)NC(=O)[C@@H](CCCCN)NC(=O)[C@@H](CCCCN)NC(=O)[C@@H](Cc1ccccc1)NC(=O)[C@@H](Cc1ccccc1)NC(=O)[C@@H](CO)NC(=O)CNC(=O)[C@@H](Cc1c[nH]c2ccccc12)NC(=O)CN)[C@H](C)O)C(N)=O [D-pleurocidin-VA] (HELM PEPTIDE1{G.[dW].G.[dS].[dF].[dF].[dK].[dK].[dA].[dA].[dH].[dA].G.[dK].[dH].[dA].G.[dK].[dA].[dA].[dL].[dT].[dH].[dY].[dL].[am]}$$$$V2.0; N-terminus assumed)
MIC on initial panels (P. aeruginosa RP73; medium and unit not given): 16-64 | MIC (P. aeruginosa RP73; untitled table, medium/unit not given): 32-64 | Toxicity HeLa (HeLa; unit not given): 198.2 ± 10.2 | Toxicity HeLa (EC50), Peptide concentration (HeLa; value printed in parentheses): (198.2 ± 10.2) μg/ml | MIC on initial panels ([1]; AB17978, medium and unit not given): 1 | MIC ([1]; AB17978, untitled table, medium/unit not given, values match RPMI of Table 2): 16 | MIC, Stability in serum (MH) ([1]; No serum): 1 | MIC, Stability in serum (MH) ([1]; Serum (10% fetal bovine serum)): 2-16 | MIC, Stability in serum (MH) ([2]; No serum, in µg/mL): 4 | MIC, Stability in serum (MH) ([2]; Serum (10% fetal bovine serum), in µg/mL): 16 | MIC on initial panels [2, 12]: 4 | MIC [2, 13]: 32 µg/mL (≈ 12.1 µM) | Toxicity Calu-3 (EC50), Peptide concentration (Calu-3): (>250) μg/ml | MIC, Stability in serum (MH) ([3]; No serum): 32 | MIC, Stability in serum (MH) ([3]; Serum (10% fetal bovine serum)): 32 | MIC on initial panels ([3]; medium and unit not given): 32 | MIC [3, 14]: >32 | MIC, Stability in serum (MH) ([4]; No serum): 8 | MIC, Stability in serum (MH) ([4]; Serum (10% fetal bovine serum)): 8-32 | MIC on initial panels ([4]; medium and unit not given): 8 | MIC [4, 14]: 32 | MIC, Stability in serum (MH) (Klebsiella pneumoniae M6; No serum): 4 µg/mL (≈ 1.51 µM) | MIC, Stability in serum (MH) (Klebsiella pneumoniae M6; Serum (10% fetal bovine serum)): 8 µg/mL (≈ 3.01 µM) | MIC on initial panels (Klebsiella pneumoniae M6; [12]): 4 | MIC (Klebsiella pneumoniae M6; [15]): 32 | MIC on initial panels (VRE12201): 128 µg/mL (≈ 48.2 µM) | Toxicity HEK293 (HEK293; unit not given): 217.3 ± 46.5 | Toxicity HEK293 (EC50), Peptide concentration (HEK293; value printed in parentheses): (217.3 ± 46.5) μg/ml | MIC on initial panels ([5]; medium and unit not given): 16 | MIC [5, 14]: 32-64 | MIC on initial panels ([6]; medium and unit inferred): 4 µg/mL (≈ 1.51 µM) | MIC [6, 15]: 8 | MIC, Peptide concentration ([7]; Mueller-Hinton broth): 64 (NG) μg/ml | MIC on initial panels ([7]; VSE775, medium and unit not given, in µg/mL): 64 | MIC, Peptide concentration ([8]; EMR -15 (EMRSA-15)): 8 µg/mL (≈ 3.01 µM) | MIC on initial panels ([8]; EMRSA15, medium and unit inferred): 32 µg/mL (≈ 12.1 µM) | MIC ([8]; EMRSA15, untitled table, medium/unit inferred, values match RPMI of Table 2): 8 µg/mL (≈ 3.01 µM) | MIC, Peptide concentration ([8]; Mueller-Hinton broth): 32 µg/mL (≈ 12.1 µM) | Toxicity A549 (EC50), Peptide concentration (A549): (>250) μg/ml | MIC, Stability in serum (MH) ([9]; No serum): 1 µg/mL (≈ 0.377 µM) | MIC, Stability in serum (MH) ([9]; Serum (10% fetal bovine serum)): 1 µg/mL (≈ 0.377 µM) | MIC on initial panels [9, 12]: 1 | MIC [9, 15]: 8 | MIC on initial panels [10, 12]: 64 | MIC [10, 13]: 32 µg/mL (≈ 12.1 µM) | Toxicity HC50, Peptide concentration (human red blood cells): >>400 μg/ml | MIC, Stability in serum (MH) ([11]; No serum): 1 µg/mL (≈ 0.377 µM) | MIC, Stability in serum (MH) ([11]; Serum (10% fetal bovine serum)): 2 µg/mL (≈ 0.754 µM) | MIC on initial panels [11, 12]: 1 | MIC [11, 15]: 8-32 | MIC on initial panels, Fungi (C. albicans): 8 µg/mL (≈ 3.01 µM)
